Experimental data: patent publication US12303547B2, “Compound, use, pharmaceutical composition, method of diagnosis, method of treatment, and method of transportation and/or internalization of a compound into eukaryotic cells” (priority 2018, dated 2025)
Where no end group is shown, it is not given here.

Key:
HUVEC = assay: Cell uptake study (confocal), HUVEC; assay type: cell-based, human; details: 4 h, preliminary experiments
From the text: (§1) The compound of the invention (C-ter) was chemically coupled with the amine reactive dye (Alexa fluor 488 […] tetra fluorophenyl ester (TFP)) using the Microscale Alexa Fluor® 488 Protein Labeling kit (Molecular Probes), following the manufacturer's instructions. Other entities (Amblyomin-X and its fragment called Kunitz domain) were also modified as described above, for comparative analysis.
(§2) The dye-conjugated protein was named 488-Amblyomin-X. Briefly, cells (10^4 cells/well) were seeded into 96-well plates. Once stabilized, the culture medium was replaced and cells were incubated with 488-Amblyomin-X (20 μM) at 37° C. for 2 h, 4 h and 24 h. The cells were then incubated with Alexa Fluor 555 transferrin (100 μg/ml), the cholera toxin B subunit Alexa Fluor 555 (50 μg/ml) or Alexa Fluor 555 dextran (1 mg/ml) in binding medium to 37° C. for 20 min. Nuclei were stained with Hoechst 332. Then, green and red fluorescence were monitored using a Molecular Devices ImageXpress Micro Confocal plate scanning microscope (Molecular Devices, Sunnyvale, CA) or using LSM 510 Meta confocal microscope (Zeiss, Jena, Germany) followed by evaluation of overlap between 488-Amblyomin-X and endocytosis markers using MetaXpress software (Molecular Devices, Sunnyvale, CA).

[1] = system: human umbilical vein endothelial cells (HUVEC); assay: MTT cell viability assay, HUVEC; assay type: cell-based; details: 48 h, preliminary results
From the text: (§3) Human melanomas (SK-MEL-28), pancreatic adenocarcinomas (MIA-PaCa-2) and murine renal adenocarcinoma cells (RENCA) were obtained and cultured according to the instructions of the American Type Culture Collection (ATCC, Manassas, VA). Human dermal fibroblast cells (HDFa) were obtained from Invitrogen. Endothelial cells were obtained from human umbilical veins (HUVECs), as previously described^11. The study received prior approval from the Research Ethics Committee and the free and informed consent form was obtained from female donors. HUVECs were seeded in T75 flasks previously covered with 2% gelatin and cultured in RPMI medium, supplemented with 10% fetal bovine serum, L-glutamine (2 mM), streptomycin sulfate ([…]), penicillin (100 U/ml) sodium pyruvate ([…]), 2-mercaptoethanol ([…]), ECGF ([…]) and heparin (45 μg/ml), pH 7.4. In all experiments, HUVEC were used in the second or third passages. All cell lines were routinely cultured in a humidified 5% CO2 incubator at 37° C.
(§4) Cell viability was measured by the 3-(4,5-dimethylthiazol-2-yl)-2,5-diphenyltetrazolium bromide (MTT) assay. […] Afterwards, the medium was discarded, the dark blue crystalline formazan product was dissolved in […] of dimethyl sulfoxide (DMSO), and the absorbance was measured in a Spectra MAX 190 microplate reader (Molecular Devices, Sunnyvale, USA) at 540 nm.

[2] = system: murine renal adenocarcinoma cells (RENCA); assay: MTT cell viability assay, RENCA; assay type: cell-based; details: 48 h, preliminary results
From the text: as §3, §4

Mia PaCa-2 = assay: Cell uptake study with Alexa Fluor 488 labelled molecules, Mia PaCa-2; assay type: cell-based, human; details: for Uptake by tumor cells: Alexa Fluor 488 labelled
From the text: as §1
as §2, with “Once stabilized, the culture medium was replaced and cells were incubated with 488-Amblyomin-X (20 μM) at 37° C. for 2 h, 4 h and 24 h.” left out

SK-MEL-28 = assay: Cell uptake study with Alexa Fluor 488 labelled molecules, SK-MEL-28; assay type: cell-based, human; details: for Uptake by tumor cells: Alexa Fluor 488 labelled
From the text: as §1
as §2, with “Once stabilized, the culture medium was replaced and cells were incubated with 488-Amblyomin-X (20 μM) at 37° C. for 2 h, 4 h and 24 h.” left out

[3] = system: MIA PaCa-2 pancreatic adenocarcinoma cells; assay: MTT cell viability assay, MIA PaCa-2; assay type: cell-based, human; details: MIA PaCa-2, 48 h, increasing concentrations; Amblyomin-X 20 μM
From the text: as §3, §4

Tumor cell lines = assay: Co-localization with endocytosis and intracellular markers; assay type: cell-based, human
Procedure: as §2
Tumor cells were cultured in 96-well plates (10^4 cells/well) and treated with 488-Amblyomin-X (20 μM) to indicate times. Cells were washed twice with PHEM-glycine buffer (2 mM HEPES, 10 mM EGTA, 2 mM MgCl2, 60 mM Pipes, 100 mM glycine, pH 6.9) and fixed with 4% paraformaldehyde for 3 h at room temperature. The washing step was repeated and then the cells were incubated with a cell permeabilizing solution (0.1% Tween in PHEM) for 5 minutes at room temperature. Samples were washed and incubated with 1% BSA blocking solution for 30 minutes at room temperature. Next, the primary antibody was incubated overnight at 4° C.: (i) caveolin-1 anti-human mouse 1:100 (Santa Cruz Biotechnology, Inc., USA); (ii) 1:50 anti-human LAMP-2 rabbit (Abcam). […] Next, green and red fluorescence were monitored by a Molecular Devices ImageXpress Micro Confocal Plate Scanning Microscope (Molecular Devices, Sunnyvale, CA) followed by evaluation of overlap between 488-Amblyomin-X and endocytosis markers using MetaXpress software (Molecular Devices, Sunnyvale, CA) or vesicle interactions by Imaris software.

HDFa = assay: Cell uptake study (confocal), HDFa; assay type: cell-based, human; details: 4 h, preliminary experiments
From the text: as §1, §2

SK-MEL-28 cells = assay: Role of PS in uptake (Na3VO4 or Annexin V pretreatment); assay type: cell-based, human
Procedure: To investigate the role of PS in C-ter uptake, cells were pretreated with Annexin V (5 μg/mL) or Na3VO4 (25 μM) and then incubated with fluorochrome-conjugated molecules for 4 hours.

[4] = system: SK-MEL-28 human melanoma cells; assay: MTT cell viability assay, SK-MEL-28; assay type: cell-based; details: SK-MEL-28, 48 h, increasing concentrations; Amblyomin-X 20 μM
From the text: as §3, §4

[5] = system: human dermal fibroblasts (HDFa); assay: MTT cell viability assay, HDFa; assay type: cell-based; details: 48 h, preliminary results
From the text: as §3, §4

HUVECs = assay: Charge delivery capacity, uptake of Alexa 488 labelled peptides by HUVECs (HCS); assay type: cell-based, human; details: for uptake by HUVECs (HCS): 10 μM; for detection within HUVECs (HCS): after 4 h, 0.5, 1, 10 and 20 μM
Procedure: Endothelial cell culture was obtained from umbilical cords by digestion of umbilical cord veins with collagenase as described previously (19) with some modifications (20). Endothelial cells between the first and third passage were used for all experiments. Cells were seeded in 96-well culture plates (Advance, Greiner), special for immunofluorescence, at a density of 8×10^3 cells/well pre-coated with 2% (w/v) gelatin in EGM®-2 BulletKit® medium for HUVECs (Lonza, CC-3162) allowed to seed at 37° C. in a humidified atmosphere of 5% CO2. Cells were treated and incubated in RPMI medium containing 1% fetal bovine serum (FBS) and Alexa-Fluor 488 labeled peptides (C-ter/Seq ID No 1, P4/Seq ID No 2, or P4-Cter/Seq ID No 3) at different concentrations and times. After treatment, the cells were fixed with 4% paraformaldehyde and analyzed in ImageXpress Micro Confocal High-Content Imaging (HCS, Molecular Devices) in Widefield mode and the number of vesicles containing the peptides in the cells was quantified using MetaXpress High-Content Image Acquisition and Analysis Software (Molecular Devices).
Peptides Cter, P4 and P4-C-ter were labeled with cell-impermeable Alexa Fluor 488. The capacity of P4 and P4-Cter peptides bound to Alexa 488 by HUVECs at 1 h, 2 h and 4 h was analyzed using different concentrations: 0.5 μM, 1 μM, 10 μM and 20 μM (FIG. 9). This was compared with uptake of C-ter peptide linked to Alexa 488 (concentration of 0.5 μM, 1 μM, 10 μM and 20 μM) after 4 hours, as shown in previous experiments for SK-MEL-28 (FIG. 3).

## C-ter: polypeptide of SEQ ID No. 1, 50 amino acids, carboxy-terminal end of Amblyomin-X, prepared by chemical synthesis (EEQTHFHFESPKLISFKVQDYWILNDIMKKNLTGISLKSEEEDADSGEID)
HUVEC
  uptake by non-tumor cells: uptake by these cells
[1]
  cell viability (MTT): no change was observed
[2]
  cell viability (MTT): decreasing the viability of RENCA by 1 μM
Mia PaCa-2; MIA PaCa-2
  cells positive for nuclear translocation: few cells were positive
Mia PaCa-2; Mia PaCa-2, 0.25 h
  Uptake by tumor cells: 3.45 ± 1.34
Mia PaCa-2; Mia PaCa-2, 0.5 h
  Uptake by tumor cells: 4.84 ± 1.95
Mia PaCa-2; Mia PaCa-2, 1 h
  Uptake by tumor cells: 13.74 ± 7.15
Mia PaCa-2; Mia PaCa-2, 2 h
  Uptake by tumor cells: 604.99 ± 24.47
Mia PaCa-2; Mia PaCa-2, 4 h
  Uptake by tumor cells: 976.55 ± 74.55
SK-MEL-28; SK-MEL-28
  cells positive for nuclear translocation: few cells were positive
SK-MEL-28; SK-MEL-28, 20 μM, 4 h, Alexa Fluor 488 complexed
  uptake by cells (green fluorescence, confocal): taken up
SK-MEL-28; SK-MEL-28, 0.25 h
  Uptake by tumor cells: 30.84 ± 17.2
SK-MEL-28; SK-MEL-28, 0.5 h
  Uptake by tumor cells: 35.56 ± 21.09
SK-MEL-28; SK-MEL-28, 1 h
  Uptake by tumor cells: 62.17 ± 11.20
SK-MEL-28; SK-MEL-28, 2 h
  Uptake by tumor cells: 558.48 ± 189.00
SK-MEL-28; SK-MEL-28, 4 h
  Uptake by tumor cells: 1210.74 ± 379.14
[3]
  cell viability (MTT): no change was observed
Tumor cell lines; Alexa Fluor 555 labelled markers, shortest treatment time
  overlap with endocytosis markers (dextran, CTxB, transferrin): the highest were with CTxB
Tumor cell lines; Lyso Tracker, LAMP-2
  co-localization with late endosomal markers: found in co-localization with late endosomal markers, Lyso Tracker and LAMP-2
Tumor cell lines; indirect immunofluorescence
  co-localization with cav-1: occurred mainly after 4 hours of treatment
HDFa
  uptake by non-tumor cells: uptake by these cells
SK-MEL-28 cells; SK-MEL-28, Na3VO4 pretreatment, then 4 h
  uptake after pretreatment with Na3VO4: not affected
SK-MEL-28 cells; pretreatment with Na3VO4 or Annexin V
  tumor cell penetration after pretreatment with Na3VO4 or Annexin V: retains its ability to penetrate tumor cells
[4]
  cell viability (MTT): no change was observed
[5]
  cell viability (MTT): no change was observed

## P4-Alexa 488: peptide P4 (SEQ ID No. 2) labeled with Alexa Fluor 488 (YAIGYSSKDYK; also: Alexa Fluor 488 label) [reference compound]
HUVECs; 4 h
  uptake by HUVECs (HCS): poorly detected
HUVECs
  detection within HUVECs (HCS): not detected within cells

B1: P4-Cter-Alexa488: hybrid peptide P4-Cter (SEQ ID No. 3) labeled with Alexa Fluor 488 (conjugate)
chain: YAIGYSSKDYKEEQTHFHFESPKLISFKVQDYWILNDIMKKNLTGISLKSEEEDADSGEID
modifications: also: Alexa Fluor 488 label
HUVECs; 1 h
  uptake by HUVECs (HCS): efficiently absorbed
HUVECs
  detection within HUVECs (HCS): captured and quantified
